Experimental data from patent US8574563B2 (Bristol-Myers Squibb Company, priority 2006, dated 2013).
Where two headings read alike, the source gives them in different places.

Test system: HCV 1b-377-neo replicon cells
Assay: HCV replicon assay, HCV 1b-377-neo replicon cells (1b FRET)
Assay type: cell-based, Hepatitis C virus genotype 1b
In short: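 Compounds were tested in genotype 1b subgenomic replicon cells carrying a neomycin marker, alongside a matched replicon line with an NS5A Y2065H substitution that confers resistance to a reference NS5A inhibitor.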

[1] = Hepatitis C virus, HCV 1b-377-neo replicon cells, HCV 1b genotype, read-out: EC50 range against HCV 1b (Table 2, Range)

CC(=O)N[C@H](C(=O)N1CCC[C@H]1c1nc(-c2ccc(-c3ccc(-c4c[nH]c([C@@H]5CCCN5C(=O)[C@@H](NC(C)=O)C(C)C)n4)cc3)cc2)c[nH]1)C(C)C [Example F60, N-((1S)-1-(((2S)-2-(4-(4′-(2-((2S)-1-((2S)-2-acetamido-3-methylbutanoyl)-2-pyrrolidinyl)-1H-imidazol-4-yl)-4-biphenylyl)-1H-imidazol-2-yl)-1-pyrrolidinyl)carbonyl)-2-methylpropyl)acetamide] was tested, and the EC50 [1] was 0.001 to 0.999 nM.
CCC(=O)N[C@H](C(=O)N1CCC[C@H]1c1nc(-c2ccc(-c3ccc(-c4c[nH]c([C@@H]5CCCN5C(=O)[C@@H](NC(=O)CC)C(C)C)n4)cc3)cc2)c[nH]1)C(C)C [Example F61, N-((1S)-2-methyl-1-(((2S)-2-(4-(4′-(2-((2S)-1-((2S)-3-methyl-2-(propionylamino)butanoyl)-2-pyrrolidinyl)-1H-imidazol-4-yl)-4-biphenylyl)-1H-imidazol-2-yl)-1-pyrrolidinyl)carbonyl)propyl)propanamide] was tested, and the EC50 [1] was 1 to 99 nM.
In the case of COCC(=O)N[C@H](C(=O)N1CCC[C@H]1c1nc(-c2ccc(-c3ccc(-c4c[nH]c([C@@H]5CCCN5C(=O)[C@@H](NC(=O)COC)C(C)C)n4)cc3)cc2)c[nH]1)C(C)C [Example F62, 2-methoxy-N-((1S)-1-(((2S)-2-(4-(4′-(2-((2S)-1-((2S)-2-((methoxyacetyl)amino)-3-methylbutanoyl)-2-pyrrolidinyl)-1H-imidazol-4-yl)-4-biphenylyl)-1H-imidazol-2-yl)-1-pyrrolidinyl)carbonyl)-2-methylpropyl)acetamide], the EC50 [1] is reported as 1 to 99 nM.
CNC(=O)N[C@H](C(=O)N1CCC[C@H]1c1nc(-c2ccc(-c3ccc(-c4c[nH]c([C@@H]5CCCN5C(=O)[C@@H](NC(=O)NC)C(C)C)n4)cc3)cc2)c[nH]1)C(C)C [Example F63, 1-methyl-3-((1S)-2-methyl-1-(((2S)-2-(4-(4′-(2-((2S)-1-(N-(methylcarbamoyl)-L-valyl)-2-pyrrolidinyl)-1H-imidazol-4-yl)-4-biphenylyl)-1H-imidazol-2-yl)-1-pyrrolidinyl)carbonyl)propyl)urea] was tested, and the EC50 [1] was 0.001 to 0.999 nM.
With CCNC(=O)N[C@H](C(=O)N1CCC[C@H]1c1nc(-c2ccc(-c3ccc(-c4c[nH]c([C@@H]5CCCN5C(=O)[C@@H](NC(=O)NCC)C(C)C)n4)cc3)cc2)c[nH]1)C(C)C [Example F64, 1-ethyl-3-((1S)-1-(((2S)-2-(4-(4′-(2-((2S)-1-((2S)-2-((ethylcarbamoyl)amino)-3-methylbutanoyl)-2-pyrrolidinyl)-1H-imidazol-4-yl)-4-biphenylyl)-1H-imidazol-2-yl)-1-pyrrolidinyl)carbonyl)-2-methylpropyl)urea] the EC50 [1] was 1 to 99 nM.
Work on CC(C)[C@H](NS(=O)(=O)C(C)C)C(=O)N1CCC[C@H]1c1ncc(-c2ccc(-c3ccc(-c4cnc([C@@H]5CCCN5C(=O)[C@@H](NS(=O)(=O)N(C)C)C(C)C)[nH]4)cc3)cc2)[nH]1 [Example F65, N—((S)-1-((S)-2-(5-(4′-(2-((S)-1-((S)-2-(N,N-dimethylsulfamoylamino)-3-methylbutanoyl)pyrrolidin-2-yl)-1H-imidazol-5-yl)biphenyl-4-yl)-1H-imidazol-2-yl)pyrrolidin-1-yl)-3-methyl-1-oxobutan-2-yl)propane-2-sulfonamide] yielded an EC50 (HCV 1b replicon, FRET, read-out: 1b Fret (EC50 μM)) of 210 nM and an EC50 (HCV 1b-377-neo replicon cells, HCV 1b genotype, read-out: EC50 range against HCV 1b (Table 2, Range)) of 100 to 999 nM.
CC(C)[C@H](NS(C)(=O)=O)C(=O)N1CCC[C@H]1c1nc(-c2ccc(-c3ccc(-c4c[nH]c([C@@H]5CCCN5C(=O)[C@@H](NS(C)(=O)=O)C(C)C)n4)cc3)cc2)c[nH]1 [Example F66, N-((1S)-2-methyl-1-(((2S)-2-(4-(4′-(2-((2S)-1-((2S)-3-methyl-2-((methylsulfonyl)amino)butanoyl)-2-pyrrolidinyl)-1H-imidazol-4-yl)-4-biphenylyl)-1H-imidazol-2-yl)-1-pyrrolidinyl)carbonyl)propyl)methanesulfonamide] gave an EC50 [1] of 1 to 99 nM.
Molecule CCS(=O)(=O)N[C@H](C(=O)N1CCC[C@H]1c1nc(-c2ccc(-c3ccc(-c4c[nH]c([C@@H]5CCCN5C(=O)[C@@H](NS(=O)(=O)CC)C(C)C)n4)cc3)cc2)c[nH]1)C(C)C [Example F67, N-((1S)-1-(((2S)-2-(4-(4′-(2-((2S)-1-((2S)-2-((ethylsulfonyl)amino)-3-methylbutanoyl)-2-pyrrolidinyl)-1H-imidazol-4-yl)-4-biphenylyl)-1H-imidazol-2-yl)-1-pyrrolidinyl)carbonyl)-2-methylpropyl)ethanesulfonamide] has an EC50 [1] of 1 to 99 nM.
For C[C@H](NS(C)(=O)=O)C(=O)N1CCC[C@H]1c1nc(-c2ccc(-c3ccc(-c4cnc([C@@H]5CCCN5C(=O)[C@H](C)NS(C)(=O)=O)[nH]4)cc3)cc2)c[nH]1 [Example F69, N-((1S)-1-methyl-2-((2S)-2-(5-(4′-(2-((2S)-1-(N-(methylsulfonyl)-L-alanyl)-2-pyrrolidinyl)-1H-imidazol-4-yl)-4-biphenylyl)-1H-imidazol-2-yl)-1-pyrrolidinyl)-2-oxoethyl)methanesulfonamide], the EC50 [1] was 100 to 999 nM.
COC(=O)N[C@H](C(=O)N1CCC[C@H]1c1ncc(-c2ccc(-c3ccc(-c4[nH]c([C@@H]5CCCN5C(=O)[C@@H](NC(=O)OC)C(C)C)nc4CC4OCCCO4)cc3)cc2)[nH]1)C(C)C [Example J14, methyl ((1S)-1-(((2S)-2-(4-(1,3-dioxan-2-ylmethyl)-5-(4′-(2-((2S)-1-((2S)-2-((methoxycarbonyl)amino)-3-methylbutanoyl)-2-pyrrolidinyl)-1H-imidazol-4-yl)-4-biphenylyl)-1H-imidazol-2-yl)-1-pyrrolidinyl)carbonyl)-2-methylpropyl)carbamate] showed an EC50 [1] of 0.001 to 0.999 nM.
Molecule COC(=O)N[C@H](C(=O)N1CCC[C@H]1c1ncc(-c2ccc(-c3ccc(-c4nc([C@@H]5CCCN5C(=O)[C@@H](NC(=O)OC)[C@@H](C)OC)[nH]c4CC(OC)OC)cc3)cc2)[nH]1)[C@@H](C)OC [Example J14a, methyl ((1S,2R)-1-(((2S)-2-(4-(2,2-dimethoxyethyl)-5-(4′-(2-((2S)-1-(N-(methoxycarbonyl)-O-methyl-L-threonyl)-2-pyrrolidinyl)-1H-imidazol-4-yl)-4-biphenylyl)-1H-imidazol-2-yl)-1-pyrrolidinyl)carbonyl)-2-methoxypropyl)carbamate] has an EC50 [1] of 0.001 to 0.999 nM.
COC(=O)N[C@H](C(=O)N1CCC[C@H]1c1ncc(-c2ccc(-c3ccc(-c4nc([C@@H]5CCCN5C(=O)[C@@H](NC(=O)OC)C(C)C)[nH]c4CC(OC)OC)cc3)cc2)[nH]1)C(C)C [Example J14a.1, methyl ((1S)-1-(((2S)-2-(4-(2,2-dimethoxyethyl)-5-(4′-(2-((2S)-1-((2S)-2-((methoxycarbonyl)amino)-3-methylbutanoyl)-2-pyrrolidinyl)-1H-imidazol-4-yl)-4-biphenylyl)-1H-imidazol-2-yl)-1-pyrrolidinyl)carbonyl)-2-methylpropyl)carbamate] gave an EC50 [1] of 0.001 to 0.999 nM.
COC(=O)Cc1[nH]c([C@@H]2CCCN2C(=O)[C@@H](NC(=O)OC)[C@@H](C)OC)nc1-c1ccc(-c2ccc(-c3cnc([C@@H]4CCCN4C(=O)[C@@H](NC(=O)OC)[C@@H](C)OC)[nH]3)cc2)cc1 [Example J14b, methyl (2-((2S)-1-(N-(methoxycarbonyl)-O-methyl-L-threonyl)-2-pyrrolidinyl)-4-(4′-(2-((2S)-1-(N-(methoxycarbonyl)-O-methyl-L-threonyl)-2-pyrrolidinyl)-1H-imidazol-4-yl)-4-biphenylyl)-1H-imidazol-5-yl)acetate] showed an EC50 [1] of 0.001 to 0.999 nM.
For COC(=O)Cc1[nH]c([C@@H]2CCCN2C(=O)[C@@H](NC(=O)OC)C(C)C)nc1-c1ccc(-c2ccc(-c3cnc([C@@H]4CCCN4C(=O)[C@@H](NC(=O)OC)C(C)C)[nH]3)cc2)cc1 [Example J14b.1, methyl (2-((2S)-1-(N-(methoxycarbonyl)-L-valyl)-2-pyrrolidinyl)-4-(4′-(2-((2S)-1-(N-(methoxycarbonyl)-L-valyl)-2-pyrrolidinyl)-1H-imidazol-4-yl)-4-biphenylyl)-1H-imidazol-5-yl)acetate], the EC50 [1] was 0.001 to 0.999 nM.
For CCCc1[nH]c([C@@H]2CCCN2C(=O)[C@H](C)NC(=O)OC)nc1-c1ccc(-c2ccc(-c3cnc([C@@H]4CCCN4C(=O)[C@H](C)NC(=O)OC)[nH]3)cc2)cc1 [Example J14c, methyl ((1S)-2-((2S)-2-(4-(4′-(2-((2S)-1-(N-(methoxycarbonyl)-L-alanyl)-2-pyrrolidinyl)-4-propyl-1H-imidazol-5-yl)-4-biphenylyl)-1H-imidazol-2-yl)-1-pyrrolidinyl)-1-methyl-2-oxoethyl)carbamate], the EC50 [1] was 0.001 to 0.999 nM.
CCCc1[nH]c([C@@H]2CCCN2C(=O)[C@@H](c2ccccc2)N(CC)CC)nc1-c1ccc(-c2ccc(-c3cnc([C@@H]4CCCN4C(=O)[C@@H](c4ccccc4)N(CC)CC)[nH]3)cc2)cc1 [Example J14c.1, (1R)-2-((2S)-2-(4-(4′-(2-((2S)-1-((2R)-2-(diethylamino)-2-phenylacetyl)-2-pyrrolidinyl)-1H-imidazol-4-yl)-4-biphenylyl)-5-propyl-1H-imidazol-2-yl)-1-pyrrolidinyl)-N,N-diethyl-2-oxo-1-phenylethanamine] was tested, and the EC50 [1] was 0.001 to 0.999 nM.
Work on CCCc1[nH]c([C@@H]2CCCN2C(=O)[C@@H](NC(=O)OC)C(C)C)nc1-c1ccc(-c2ccc(-c3cnc([C@@H]4CCCN4C(=O)[C@@H](NC(=O)OC)C(C)C)[nH]3)cc2)cc1 [Example J14c.2, methyl ((1S)-1-(((2S)-2-(4-(4′-(2-((2S)-1-((2S)-2-((methoxycarbonyl)amino)-3-methylbutanoyl)-2-pyrrolidinyl)-1H-imidazol-4-yl)-4-biphenylyl)-5-propyl-1H-imidazol-2-yl)-1-pyrrolidinyl)carbonyl)-2-methylpropyl)carbamate] yielded an EC50 [1] of 0.001 to 0.999 nM.
